Assay results: patent US8080580B2, “Dioxa-bicyclo[3.2.1]octane-2,3,4-triol derivatives” (Pfizer Inc., priority 2008, dated 2011)
Where “and” joins values, the source holds several entries; their conditions need not be identical. Equal values may be shown once.

Tests used:
human SGLT2 = target: T1, human SGLT2 (Homo sapiens, UniProt P31639); experiment: SGLT2 functional assay: inhibition of AMG uptake in CHO-FlpIn cells stably expressing human SGLT2; format: cell-based; details: individual runs (Run No.), read-out: hSGLT2 IC50
T1 construct: expressed in transfected cells; host or cells: CHO-FlpIn (Invitrogen)
T1 sequence (P31639 1-672): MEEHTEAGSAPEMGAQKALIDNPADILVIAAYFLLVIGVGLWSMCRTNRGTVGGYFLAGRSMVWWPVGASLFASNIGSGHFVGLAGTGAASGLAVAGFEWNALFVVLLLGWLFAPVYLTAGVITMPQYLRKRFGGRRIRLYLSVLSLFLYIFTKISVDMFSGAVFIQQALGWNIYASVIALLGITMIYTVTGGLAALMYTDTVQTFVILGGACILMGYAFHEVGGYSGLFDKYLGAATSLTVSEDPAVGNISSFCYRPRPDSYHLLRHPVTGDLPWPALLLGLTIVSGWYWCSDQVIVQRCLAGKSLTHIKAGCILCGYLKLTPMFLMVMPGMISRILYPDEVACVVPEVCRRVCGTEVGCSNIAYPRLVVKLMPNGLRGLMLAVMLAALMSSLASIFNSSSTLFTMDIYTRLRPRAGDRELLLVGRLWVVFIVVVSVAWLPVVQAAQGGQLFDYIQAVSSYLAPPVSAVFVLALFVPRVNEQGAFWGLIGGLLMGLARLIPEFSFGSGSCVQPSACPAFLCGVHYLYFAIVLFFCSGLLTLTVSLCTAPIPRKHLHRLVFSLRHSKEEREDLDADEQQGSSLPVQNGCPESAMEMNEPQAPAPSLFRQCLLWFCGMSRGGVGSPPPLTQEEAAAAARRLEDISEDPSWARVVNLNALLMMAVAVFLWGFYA
Description: The SGLT2 functional assay was designed to detect the inhibition of methyl-alpha-D glucopyranoside (AMG—a non-metabolizable form of glucose) uptake via the SGLT2 transporter. The SGLT2 transporter recovers glucose from the proximal tubules of the kidney; its inhibition results in sugar wasted in the urine. The positive control compound, Phlorizin, is a known inhibitor of glucose uptake for SGLT2 and was used for comparing the high percent effect of SGLT2 inhibition of the test compounds.
CHO-FlpIn (Invitrogen, Carlsbad, Calif.) cells stably expressing human SGLT2 (pcDNA5/FRT) were plated in Iso-TC 96 well plates (Perkin Elmer, Waltham, Mass.) at a density of 100,000 cells/well in 100 microL of growth media (1:1 F-12/DMEM media (Gibco, Carlsbad, Calif.), 10% FBS (Sigma, St. Louis Mo.), 1× Pen/Strep (Gibco, Carlsbad, Calif.), 600 microg/mL Hygromycin (Invitrogen, Carlsbad, Calif.)). Prior to treating with test compound, confluent cells were serum starved for 2 hours at 37° C. in 1:1 F-12/DMEM media, replacing with fresh F-12/DMEM media after 1 hour. […] Cell plates were then incubated for 3 hours at 37° C. for AMG uptake.

[1] = Pharmacokinetic testing in rats (IV or PO); format: in vivo; details: rat, IV, 2 mg/kg
Protocol: Examples 1A, 2A, 4A, 12A, and 14A were tested in rats to assess pharmacokinetic parameters including maximum concentration (Cmax), area under the plasma concentration time curve (AUC), clearance (CL), steady state volume of distribution (Vss), half life (t1/2), and bioavailability (F). Male Sprague Dawley rats (˜300 g) were used. Rats received compound by intravenous (IV) or oral gavage (PO) administration and the doses tested including vehicle to formulate dosing solutions are listed in Table 5.
Following IV or PO administration, 0.2 mL blood was sampled from the jugular vein at various timepoints (Table 5). Twenty microL aliquots of plasma samples and standards were subjected to protein precipitation with acetonitrile containing an internal standard. Samples were vortexed and centrifuged to obtain supernatant which was analyzed by LC-MS/MS. Analyst (Version 1.4.1) was used to measure peak areas and peak area ratios of analyte to internal standard were calculated. LC-MS/MS conditions are as follows: Mass Spectrometer+Source Type was Sciex API 4000−Turbo Spray; HPLC pump was Shimadzu; Autosampler was CTC PAL Autosampler; Injection volume was 3.0 to 10 microL; A gradient was used with mobile phase A: 10 mM ammonium acetate and 1% Isopropyl alcohol in water; B: Acetonitrile; Flowrate 0.300 mL per minute (Column 2.0×30 mm 5 microm LUNA C18 column (phenomenex)). Detection mode was negative.
A calibration curve was constructed from the peak area ratios of the standards to the internal standard by applying a weighted linear (1/x or 1/x2) regression. The dynamic range of the standard curve was 5.00 ng/mL to 5000 ng/mL.
Pharmacokinetic parameters were determined from individual animal data using non-compartmental analysis in Watson (version 7.2). Concentrations below the limit of quantitation (BLQ) were recorded as 0 ng/mL for use in calculations.
The following calculations were used: AUC(0−τ)=Determined using the linear trapezoidal method AUC(0−□)=AUC(0−τ) plus extrapolated area determined by dividing plasma concentration at τ by the slope of the terminal log-linear phase CL=Dose/AUC(0−∞) Vdss=CL×MRT Cmax=Recorded directly from plasma concentration time curve Tmax=Recorded directly from plasma concentration time curve t½=ln(0.5)/slope of the terminal log-linear phase F %=AUC(0−∞)PO per dose/AUC(0−∞)IV per dose C(0)=Extrapolated by linear regression from the apparent distribution phase following IV administration MRT=AUMC(AUC(0−∞)/AUC(0−∞)

hSGLT1 = target: T2, hSGLT1 (Homo sapiens, UniProt P13866); experiment: SGLT1 functional assay: hSGLT1 IC50 (selectivity counter-screen to the SGLT2 AMG uptake assay); format: cell-based; details: individual runs (Run No.)
T2 sequence (P13866 1-664): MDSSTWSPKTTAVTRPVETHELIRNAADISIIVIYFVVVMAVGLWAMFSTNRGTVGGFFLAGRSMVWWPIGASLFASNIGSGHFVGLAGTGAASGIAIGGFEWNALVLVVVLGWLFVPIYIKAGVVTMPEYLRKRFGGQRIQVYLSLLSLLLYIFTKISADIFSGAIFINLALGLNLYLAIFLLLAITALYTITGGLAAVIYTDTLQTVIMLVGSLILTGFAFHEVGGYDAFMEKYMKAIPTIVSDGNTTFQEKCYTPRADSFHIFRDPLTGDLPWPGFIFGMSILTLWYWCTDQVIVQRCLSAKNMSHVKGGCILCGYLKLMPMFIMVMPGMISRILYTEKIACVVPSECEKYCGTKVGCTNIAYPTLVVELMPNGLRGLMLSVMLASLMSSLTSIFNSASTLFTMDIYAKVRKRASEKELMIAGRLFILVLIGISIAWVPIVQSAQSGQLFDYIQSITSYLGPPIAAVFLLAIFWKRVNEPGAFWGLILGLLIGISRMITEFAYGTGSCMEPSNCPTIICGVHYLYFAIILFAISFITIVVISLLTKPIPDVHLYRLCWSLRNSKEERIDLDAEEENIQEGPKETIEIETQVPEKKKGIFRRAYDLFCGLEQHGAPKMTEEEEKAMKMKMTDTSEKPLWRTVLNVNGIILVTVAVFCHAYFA

SMILES | IC50 (human SGLT2) | IC50 (hSGLT1) | also measured
COc1ccc(Cc2cc([C@]34OC[C@](CO)(O3)[C@@H](O)[C@H](O)[C@@H]4O)ccc2Cl)cc1 [Example 3B, (1S,2S,3S,4S,5S)-5-[4-chloro-3-(4-methoxy-benzyl)-phenyl]-1-hydroxymethyl-6,8-dioxa-bicyclo[3.2.1]octane-2,3,4-triol] | 0.0416 µM and 0.0408 µM and 0.0279 µM and 0.0622 µM | > 10 µM | –
CCOc1ccc(Cc2cc([C@]34OC[C@](CO)(O3)[C@@H](O)[C@H](O)[C@@H]4O)ccc2Cl)cc1 [Example 4B, (1S,2S,3S,4S,5S)-5-[4-chloro-3-(4-ethoxy-benzyl)-phenyl]-1-hydroxymethyl-6,8-dioxa-bicyclo[3.2.1]octane-2,3,4-triol] | 0.122 µM and 0.0668 µM and 0.0817 µM | > 10 µM | –
COc1ccc(Cc2cc([C@]34OC[C@](CO)(O3)[C@@H](O)[C@H](O)[C@H]4O)ccc2F)cc1 [Example 5A, (1S,2S,3S,4R,5S)-5-[4-fluoro-3-(4-methoxy-benzyl)-phenyl]-1-hydroxymethyl-6,8-dioxa-bicyclo[3.2.1]octane-2,3,4-triol] | – | > 10 µM and > 1 µM and 5.79 µM | –
COc1ccc(Cc2cc([C@]34OC[C@](CO)(O3)[C@@H](O)[C@H](O)[C@@H]4O)ccc2F)cc1 [Example 5B, (1S,2S,3S,4S,5S)-5-[4-fluoro-3-(4-methoxy-benzyl)-phenyl]-1-hydroxymethyl-6,8-dioxa-bicyclo[3.2.1]octane-2,3,4-triol] | 0.186 µM | > 10 µM | –
COc1ccc(Cc2cc([C@]34OC[C@](CO)(O3)[C@@H](O)[C@H](O)[C@H]4O)ccc2C#N)cc1 [Example 6A, 2-(4-methoxybenzyl)-4-((1S,2S,3S,4R,5S)-2,3,4-trihydroxy-1-(hydroxymethyl)-6,8-dioxa-bicyclo[3,2,1]oct-5-yl)-benzonitrile] | 0.0187 µM and 0.00999 µM and 0.0135 µM and 0.0134 µM and 0.00571 µM and 0.00767 µM | > 10 µM and > 1 µM and 8.93 µM | –
CCOc1ccc(Cc2cc([C@]34OC[C@](CO)(O3)[C@@H](O)[C@H](O)[C@H]4O)ccc2F)cc1 [Example 10A] | – | > 10 µM | –
CCOc1ccc(Cc2cc([C@]34OC[C@](CO)(O3)[C@@H](O)[C@H](O)[C@@H]4O)ccc2F)cc1 [Example 10B, (1S,2S,3S,4S,5S)-5-[3-(4-ethoxy-benzyl)-4-fluoro-phenyl]-1-hydroxymethyl-6,8-dioxa-bicyclo[3.2.1]octane-2,3,4-triol] | 0.127 µM and 0.103 µM | > 10 µM | –
OC[C@@]12CO[C@@](c3ccc(F)c(Cc4ccc(Cl)cc4)c3)(O1)[C@H](O)[C@@H](O)[C@@H]2O [Example 12A, (1S,2S,3S,4R,5S)-5-[3-(4-chlorobenzyl)-4-fluorophenyl]-1-hydroxymethyl-6,8-dioxabicyclo[3.2.1]octane-2,3,4-triol] | – | > 10 µM and 5.78 µM | AUC(0-inf) ([1]; male, Sprague Dawley, plasma): 2200 ng·h/mL; clearance ([1]; male, Sprague Dawley, plasma): 15.9 mL/min/kg; half-life ([1]; male, Sprague Dawley, plasma): 3.9 h; Vd ([1]; male, Sprague Dawley, plasma, read-out: Vss): 3.68 L/kg

More lines, main results first:

IC50 (human SGLT2) | IC50 (hSGLT1) | SMILES | also measured
0.000827 µM and 0.00153 µM and 0.000942 µM and 0.000741 µM and 0.00158 µM and 0.00105 µM | 1.24 µM and > 1 µM and 0.679 µM | CCOc1ccc(Cc2cc([C@]34OC[C@](CO)(O3)[C@@H](O)[C@H](O)[C@H]4O)ccc2C)cc1 [Example 2A, (1S,2S,3S,4R,5S)-5-[3-(4-ethoxy-benzyl)-4-methyl-phenyl]-1-hydroxymethyl-6,8-dioxa-bicyclo[3.2.1]octane-2,3,4-triol] | AUC(0-inf) ([1]; male, Sprague Dawley, plasma): 1340 ng·h/mL; CL [1]: 27.7 mL/min/kg; Vss [1]: 1.03 L/kg; t1/2 [1]: 0.94 h
0.000479 µM and 0.000972 µM and 0.00139 µM and 0.000811 µM and 0.000602 µM and 0.000588 µM and 0.00135 µM | 0.543 µM and 0.397 µM and 0.55 µM and 0.757 µM and 0.523 µM and 0.672 µM and 0.38 µM | COc1ccc(Cc2cc([C@]34OC[C@](CO)(O3)[C@@H](O)[C@H](O)[C@H]4O)ccc2Cl)cc1 [Example 3A, (1S,2S,3S,4R,5S)-5-[4-chloro-3-(4-methoxy-benzyl)-phenyl]-1-hydroxymethyl-6,8-dioxa-bicyclo[3.2.1]octane-2,3,4-triol] | AUC(0-inf) ([1]; male, Sprague Dawley, plasma): 1410 ng·h/mL; half-life ([1]; male, Sprague Dawley, plasma): 1.58 h; CL [1]: 23.8 mL/min/kg; Vss [1]: 1.82 L/kg
0.0106 µM and 0.00638 µM and 0.00588 µM and 0.00611 µM | > 10 µM | CCOc1ccc(Cc2cc([C@]34OC[C@](CO)(O3)[C@@H](O)[C@H](O)[C@H]4O)ccc2C#N)cc1 [Example 7A, 2-(4-ethoxybenzyl)-4-((1S,2S,3S,4R,5S)-2,3,4-trihydroxy-1-(hydroxymethyl)-6,8-dioxa-bicyclo[3,2,1]oct-5-yl)-benzonitrile] | –
0.0096 µM and 0.0119 µM and 0.0198 µM and 0.00713 µM | > 10 µM | OC[C@@]12CO[C@@](c3ccc(F)c(Cc4ccc(OC5CCOC5)cc4)c3)(O1)[C@H](O)[C@@H](O)[C@@H]2O (stereo partly drawn) [Example 11A, (1S,2S,3S,4R,5S)-5-{4-fluoro-3-[4-(tetrahydro-furan-3-yloxy)-benzyl]-phenyl}-1-hydroxymethyl-6,8-dioxa-bicyclo[3.2.1]octane-2,3,4-triol] | –
0.0323 µM | > 3.16 µM | OC[C@@]12CO[C@@](c3ccc(F)c(Cc4ccc(Cl)cc4)c3)(O1)[C@@H](O)[C@@H](O)[C@@H]2O [Example 12B, (1S,2S,3S,4S,5S)-5-[3-(4-chlorobenzyl)-4-fluorophenyl]-1-hydroxymethyl-6,8-dioxabicyclo[3.2.1]octane-2,3,4-triol] | –
0.0149 µM and 0.0178 µM | > 10 µM | OC[C@@]12CO[C@@](c3ccc(F)c(Cc4ccc(OC5COC5)cc4)c3)(O1)[C@H](O)[C@@H](O)[C@@H]2O [Example 13A, (1S,2S,3S,4R,5S)-5-{4-fluoro-3-[4-(oxetan-3-yloxy)-benzyl]-phenyl}-1-hydroxymethyl-6,8-dioxa-bicyclo[3.2.1]octane-2,3,4-triol] | –
